Measurements reported in patent US9011965B2, “Gradient coating for biomedical applications” (Smith & Nephew, Inc., priority 2008, dated 2015).

Assay: release of bupivacaine from coated samples in PBS, spectrophotometry at 265 nm
Format: physicochemical
Conditions: released from coated samples, 3 mL PBS, 37° C.
Procedure: The release of Ag, Ca, and Bupivacaine from the prepared coating was confirmed by ICP analysis and UV spectrometry, respectively. The coated samples were immersed in 3 mL PBS for 24 and 48 hours at 37° C. At each time point, the release of bupivacaine was measured spectrophotometrically (Nanodrop, Thermo) at 265 nm. The Bupivacaine standard was prepared by dissolving appropriate amounts of the drug in PBS. PBS was used as blank.

## CCCCN1CCCCC1C(=O)Nc1c(C)cccc1C (centres unmarked) [Bupivacaine]
24 hours
  Bupivacaine Concentration in PBS: 126 ppm
48 hours
  Bupivacaine Concentration in PBS: 141 ppm
